# Data as given in patent publication US9303017B2, “2,5-disubstituted-pyridyl nicotinic ligands, and methods of use thereof” (Georgetown University, priority 2011, dated 2016).
# Like-named read-outs stand apart in the source and are kept apart here.
# Legend:
# α4β2 nAChR = α4β2 nAChR (Rattus norvegicus (Rat), UniProt P09483+P12390); assay: biochemical; type: binding
# Method: In Vitro Binding Affinities for nAChR Subtypes. […] To determine selectivities of these compounds in binding assays among the three predominant nAChR subtypes, α3β4, α4β2 and α7, the ratios of Ki values (α3β4/α4β2 and α7/α4β2) were determined.
# (§1) Cell Lines and Cell Culture. The cell lines expressing defined rat nAChR subtypes were established previously by stably transfecting HEK 293 cells with rat nAChR subunit genes. The cell line expressing human α4β2 nAChRs, YXα4β2H1, was established recently. These cell lines were maintained in minimum essential medium (MEM) supplemented with 10% fetal bovine serum, 100 units/mL penicillin G, […] and selective antibiotics at 37° C. with 5% CO2 in a humidified incubator. Fetal bovine serum was provided by Gemini Bio-Products (Woodland, Calif.). Tissue culture medium and antibiotics were obtained from Invitrogen Corporation (Carlsbad, Calif.), unless otherwise stated.
# Briefly, cultured cells at >80% confluence were removed from their flasks (80 cm^2) with a disposable cell scraper and placed in 10 mL of 50 mM Tris.HCl buffer (pH 7.4, 4° C.). The cell suspension was centrifuged at 10,000×g for 5 min and the pellet was collected. The cell pellet was then homogenized in 10 mL buffer with a polytron homogenizer and centrifuged at 36,000 g for 10 min at 4° C. The membrane pellet was resuspended in fresh buffer, and aliquots of the membrane preparation were used for binding assays. […] Bound and free ligands were separated by vacuum filtration through Whatman GF/C filters treated with 0.5% polyethylenimine. The filter-retained radioactivity was measured by liquid scintillation counting. Specific binding was defined as the difference between total binding and nonspecific binding. Data from competition binding assays were analyzed using Prism 5 (GraphPad Software, San Diego, Calif.).
# Pharmacological Properties. We measured the in vitro binding affinities of the ligands for defined receptor subtypes (α2β2, α2β4, α3β2, α3β4, α4β2, α4β4, α6β2, α6β4, and α7) expressed in stably transfected cell lines. […] Rat forebrain homogenates were included to allow comparison between the heterologous and native α4β2 and α7 nAChRs. See Table 1 for binding affinity values (Ki) of the ligands at the three major nAChR subtypes (α3β4. α4β2 and α7).
# human α4β2 nAChRs = human α4β2 nAChRs (Homo sapiens (Human), UniProt P17787+P43681); assay: 86Rb+ efflux assay (activation and desensitization), α4β2; type: cell-based; details: for Emax: read-out: Emax α4β2 nAChRs; for IC50: desensitization
# Method: In Vitro Effects on nAChR Function. […] Their agonist activities were assessed by measuring stimulated ^86Rb^+ efflux from stably transfected cells, either expressing human α4β2 nAChRs or rat α3β4 receptors.
# as §1
# ^86Rb^+ Efflux Assay. Functional properties of compounds at nAChRs expressed in the transfected cells were measured using ^86Rb^+ efflux assays as described previously. In brief, cells expressing human α4β2 or rat α3β4 nAChRs were plated into 24-well plates coated with poly-D-lysine. The plated cells were grown at 37° C. for 18 to 24 hour to reach 85-95% confluence. The cells were then incubated in growth medium (0.5 mL/well) containing ^86Rb^+ (2 μCi/mL) for 4 hour at 37° C. The loading mixture was then aspirated, and the cells were washed four times with 1 mL buffer (15 mM HEPES, 140 mM NaCl, 2 mM KCl, 1 mM MgSO4, 1.8 mM CaCl2, 11 mM Glucose, pH 7.4). One mL of buffer with or without compounds to be tested was then added to each well. After incubation for 2 min, the assay buffer was collected for measurements of ^86Rb^+ released from the cells. Cells were then lysed by adding 1 mL of 100 mM NaOH to each well, and the lysate was collected for determination of the amount of ^86Rb^+ that was in the cells at the end of the efflux assay. Radioactivity of assay samples and lysates was measured by liquid scintillation counting. Total loading (cpm) was calculated as the sum of the assay sample and the lysate of each well. The amount of ^86Rb^+ efflux was expressed as a percentage of ^86Rb^+ loaded. […] For obtaining EC50 and Emax values, stimulation curves were constructed in which 8 different concentrations of a ligand were included in the assay. […] EC50, Emax and IC50(10′) values were determined by nonlinear least-squares regression analyses (GraphPad, San Diego, Calif.).
# The functional properties of the ligands were determined by ^86Rb^+ efflux assays in cells expressing α3β4 and α4β2 nAChR subtypes. The functional activity of each ligand was measured for its agonism, antagonism and desensitization ability. Agonist activity for each of the ligands was tested at eight different concentrations. […] The full concentration-effect curves generated potency (EC50) and efficacy (Emax) of each ligand. […] We tested each ligand for antagonist activity at eight concentrations. The potency (IC50(0′)) of each ligand as an antagonist was derived from the full concentration-effect curves.
smiles,measurement,setting,value
"CCCCC#Cc1cnc(C)c(OC[C@@H]2CCN2)c1 [(S)-15, (S)-3-(azetidin-2-ylmethoxy)-5-(hex-1-ynyl)-2-methylpyridine]",Ki,"α4β2 nAChR; Table 3 (Example 4), read-out: Ki α4β2",12 nM
same,Ki Ratio α3β4/α4β2,α4β2 nAChR; selectivity for α4β2 over α3β4,"19,000"
same,Ki Ratio α7/α4β2,α4β2 nAChR; selectivity for α4β2 over α7,"7,800"
same,EC50,"human α4β2 nAChRs; agonist activity, ND = no significant stimulated efflux detected",310 nM
same,Emax,"human α4β2 nAChRs; agonist efficacy normalized to Emax of nicotine, ND = no significant stimulated efflux detected",< 20%
same,IC50,"human α4β2 nAChRs; 10 min pre-treatment, Table 3 (Example 4), read-out: IC50(10′) α4β2",18 nM
same,IC50,"human α4β2 nAChRs; 10 min pre-incubation before 100 μM nicotine, Table 2, read-out: IC50(10′) α4β2 nAChRs",180 nM
same,Emax,human α4β2 nAChRs,15%
